# Literature values in patent US20060062853A1 (Medical Research Institute, priority 2004, published 2006).
# Columns and labels:
# [1] = such as juices
# [2] = not given; remark: listed apart in the source
smiles,measurement,setting,value
"CN(CC(=O)O)C(=N)N [creatine, N-(aminoiminomethyl)-N-methylglycine]",stability in acidic solutions,[1],not stable
same,creatine lost from the cell,70 kg male,approximately 2 grams per day
same,loss of creatine from skeletal muscle,skeletal muscle,about 3 % per day
same,half-life in blood plasma,[2],1 to 1.5 h
